Measured values as given in patent publication US11834454B2, “Alkynylphenylbenzamide compounds and applications thereof” (SHENZHEN NEWDEL BIOTECH CO., LTD., priority 2021, dated 2023).

Experiments:
TRKC = molecular target: T1, TRKC (Homo sapiens, UniProt Q16288); assay: Z'-LYTE kinase activity detection, TRKC; type: biochemical
T1 construct: purchased American Life Technologies PV3617

TRKA = molecular target: T2, TRKA (Homo sapiens, UniProt P04629); assay: Z'-LYTE kinase activity detection, TRKA; type: biochemical
T2 construct: purchased American Life Technologies PV3144
T2 sequence (P04629 33-796): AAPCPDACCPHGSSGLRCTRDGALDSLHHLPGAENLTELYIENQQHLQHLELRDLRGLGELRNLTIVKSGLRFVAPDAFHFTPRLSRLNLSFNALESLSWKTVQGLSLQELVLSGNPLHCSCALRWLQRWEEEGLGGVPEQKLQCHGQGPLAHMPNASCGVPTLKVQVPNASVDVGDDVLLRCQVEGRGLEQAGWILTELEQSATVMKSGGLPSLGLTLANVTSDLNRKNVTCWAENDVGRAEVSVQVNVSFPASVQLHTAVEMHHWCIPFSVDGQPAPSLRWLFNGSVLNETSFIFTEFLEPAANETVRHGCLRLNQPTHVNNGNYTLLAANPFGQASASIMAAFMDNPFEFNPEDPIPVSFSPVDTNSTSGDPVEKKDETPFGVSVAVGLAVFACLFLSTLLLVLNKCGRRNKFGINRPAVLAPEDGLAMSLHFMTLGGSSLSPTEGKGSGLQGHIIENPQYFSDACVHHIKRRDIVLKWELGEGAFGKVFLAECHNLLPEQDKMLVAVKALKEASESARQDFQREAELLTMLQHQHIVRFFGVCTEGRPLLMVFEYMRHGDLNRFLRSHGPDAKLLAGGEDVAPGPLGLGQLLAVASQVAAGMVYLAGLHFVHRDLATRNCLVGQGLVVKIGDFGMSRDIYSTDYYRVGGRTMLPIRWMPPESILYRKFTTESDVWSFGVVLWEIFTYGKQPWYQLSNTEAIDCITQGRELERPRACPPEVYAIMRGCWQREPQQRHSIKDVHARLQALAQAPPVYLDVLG

BaF3-ETV6-NTRK2 = molecular target: T3, BaF3-ETV6-NTRK2 (Homo sapiens, UniProt Q16620); assay: Cell proliferation inhibition, Ba/F3-TRKs stable strain (CCK-8); type: cell-based, mouse; conditions: 72 hours, read-out: cell viability IC50 ETV6-NTRK2
T3 construct: fused on or other part: P41212 (Transcription factor ETV6)
T3 sequence (Q16620 538-822 limits assumed): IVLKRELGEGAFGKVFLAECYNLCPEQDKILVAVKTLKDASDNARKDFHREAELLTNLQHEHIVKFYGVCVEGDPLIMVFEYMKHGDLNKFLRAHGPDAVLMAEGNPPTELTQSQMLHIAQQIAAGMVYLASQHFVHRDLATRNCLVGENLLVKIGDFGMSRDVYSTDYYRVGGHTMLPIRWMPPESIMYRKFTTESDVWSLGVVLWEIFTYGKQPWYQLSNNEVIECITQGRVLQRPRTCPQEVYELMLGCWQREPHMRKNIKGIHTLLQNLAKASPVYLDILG
Source text: (§1) The BaF3 cells (mouse pre-B cells) used in this experiment were purchased from the Japanese Cell Bank. All of the monoclonal stable strains, BaF3-CD74-NTRK1, BaF3-ETV6-NTRK2 and BaF3-ETV6-NTRK3 were constructed by our laboratory, and were identified by experiments such as positive control, protein expression and gene sequencing.
(§2) The brief steps of stable strain construction were as follows: constructed pCDNA3.1(+) plasmid vector carrying genes such as CD74-NTRK1, ETV6-NTRK2, ETV6-NTRK3; the plasmid was electroporated into Ba/F3 cells using Amaxa® Cell Line Nucleofector® Kit V; 48 hours after electroporation, geneticin (G418) with a final concentration of 1000 μg/mL was added to screen for two weeks, and the interleukin 3 (IL3) was removed to continue screening to obtain polyclonal stable strains; and then single clones were selected by limiting dilution method; the stable strains were then identified by the positive drugs, Western Blot (WB), and gene sequencing; the correct monoclonal through identification can be used to study the cell proliferation inhibitory activity of the inhibitors.
(§3) Cell proliferation inhibitory activity study: The cells in logarithmic growth phase were seeded into 96-well plates at 8000-12000 cells/well, and the inhibitors at different concentrations of (0-10 μM) were added the next day, and the culture was continued for 72 hours; then 10 μL of Cell Counting Kit-8 Cell Counting Reagent (CCK-8 Reagent) was added to each well, and continued to incubate for 1-3 hours; then its absorbance at 450 nm and 650 nm were measured with a super microplate reader. The median inhibitory concentration (IC50) was calculated using medical graphing software (GraphPad Prism 8.0.0).

BaF3-CD74-NTRK1 = molecular target: T4, BaF3-CD74-NTRK1 (Homo sapiens, UniProt P04629); assay: as above; type: cell-based, mouse; conditions: 72 hours, read-out: cell viability IC50 CD74-NTRK1
T4 construct: fused on or other part: P04233 (HLA class II histocompatibility antigen gamma chain)
T4 sequence (P04629 510-796 limits assumed): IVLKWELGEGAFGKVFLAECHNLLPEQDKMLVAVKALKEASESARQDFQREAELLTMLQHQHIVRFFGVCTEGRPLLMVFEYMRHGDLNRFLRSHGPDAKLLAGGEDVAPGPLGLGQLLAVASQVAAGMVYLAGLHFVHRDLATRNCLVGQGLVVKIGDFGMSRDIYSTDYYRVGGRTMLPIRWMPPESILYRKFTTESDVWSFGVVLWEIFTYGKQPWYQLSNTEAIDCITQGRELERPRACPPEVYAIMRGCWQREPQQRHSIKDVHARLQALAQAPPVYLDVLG
Source text: as §1, §2, §3

BaF3-ETV6-NTRK3 = molecular target: T5, BaF3-ETV6-NTRK3 (Homo sapiens, UniProt Q16288); assay: as above; type: cell-based, mouse; conditions: 72 hours, read-out: cell viability IC50 ETV6-NTRK3
T5 construct: fused on or other part: P41212 (Transcription factor ETV6)
T5 sequence (Q16288 whole entry, the tested form may be a part): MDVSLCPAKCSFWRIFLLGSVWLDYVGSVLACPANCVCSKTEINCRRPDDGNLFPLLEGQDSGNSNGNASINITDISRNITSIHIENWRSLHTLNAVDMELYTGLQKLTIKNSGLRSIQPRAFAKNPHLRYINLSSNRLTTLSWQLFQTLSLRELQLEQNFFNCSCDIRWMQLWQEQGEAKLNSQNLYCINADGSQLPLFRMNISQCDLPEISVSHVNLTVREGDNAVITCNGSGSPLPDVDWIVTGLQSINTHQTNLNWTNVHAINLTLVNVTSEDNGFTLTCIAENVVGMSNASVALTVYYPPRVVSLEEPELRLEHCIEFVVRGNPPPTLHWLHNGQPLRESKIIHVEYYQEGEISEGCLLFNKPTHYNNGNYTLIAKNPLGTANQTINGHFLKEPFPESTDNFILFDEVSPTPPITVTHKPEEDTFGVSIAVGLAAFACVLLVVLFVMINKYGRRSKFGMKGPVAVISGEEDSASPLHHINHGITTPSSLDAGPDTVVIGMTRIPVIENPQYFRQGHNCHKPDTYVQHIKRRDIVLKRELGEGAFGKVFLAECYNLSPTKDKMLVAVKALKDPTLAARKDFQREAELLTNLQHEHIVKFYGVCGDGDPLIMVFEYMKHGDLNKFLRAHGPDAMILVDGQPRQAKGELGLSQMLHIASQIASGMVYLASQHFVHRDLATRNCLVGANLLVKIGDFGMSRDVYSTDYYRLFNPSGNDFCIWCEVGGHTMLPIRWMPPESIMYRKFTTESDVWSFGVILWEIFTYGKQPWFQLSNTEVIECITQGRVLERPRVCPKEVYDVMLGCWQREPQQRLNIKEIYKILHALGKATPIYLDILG
Source text: as §1, §2, §3

TRKB = molecular target: T6, TRKB (Homo sapiens, UniProt Q16620); assay: Z'-LYTE kinase activity detection, TRKB; type: biochemical
T6 construct: purchased American Life Technologies PV3616
T6 sequence (Q16620 32-822): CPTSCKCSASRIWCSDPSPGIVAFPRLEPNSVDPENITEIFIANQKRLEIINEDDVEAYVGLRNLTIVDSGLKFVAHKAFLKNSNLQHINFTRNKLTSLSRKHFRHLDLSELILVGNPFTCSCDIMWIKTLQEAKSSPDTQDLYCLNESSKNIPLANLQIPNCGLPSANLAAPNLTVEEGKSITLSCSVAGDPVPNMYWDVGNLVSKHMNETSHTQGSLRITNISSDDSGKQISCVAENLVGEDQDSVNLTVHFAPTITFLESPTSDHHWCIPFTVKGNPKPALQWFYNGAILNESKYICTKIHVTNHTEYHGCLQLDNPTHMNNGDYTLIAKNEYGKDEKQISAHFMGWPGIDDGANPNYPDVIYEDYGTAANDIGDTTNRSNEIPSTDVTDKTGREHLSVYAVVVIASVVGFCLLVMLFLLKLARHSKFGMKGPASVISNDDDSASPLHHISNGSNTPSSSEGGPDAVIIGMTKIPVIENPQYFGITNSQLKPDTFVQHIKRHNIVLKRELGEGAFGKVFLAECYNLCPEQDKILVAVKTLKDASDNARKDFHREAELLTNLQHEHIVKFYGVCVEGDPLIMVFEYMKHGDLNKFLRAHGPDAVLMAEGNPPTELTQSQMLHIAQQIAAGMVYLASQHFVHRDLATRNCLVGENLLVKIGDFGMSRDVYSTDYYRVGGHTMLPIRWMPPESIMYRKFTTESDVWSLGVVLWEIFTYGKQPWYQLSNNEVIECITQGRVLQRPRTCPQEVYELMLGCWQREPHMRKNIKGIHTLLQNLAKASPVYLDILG

T1 sequence (Q16288 32-839): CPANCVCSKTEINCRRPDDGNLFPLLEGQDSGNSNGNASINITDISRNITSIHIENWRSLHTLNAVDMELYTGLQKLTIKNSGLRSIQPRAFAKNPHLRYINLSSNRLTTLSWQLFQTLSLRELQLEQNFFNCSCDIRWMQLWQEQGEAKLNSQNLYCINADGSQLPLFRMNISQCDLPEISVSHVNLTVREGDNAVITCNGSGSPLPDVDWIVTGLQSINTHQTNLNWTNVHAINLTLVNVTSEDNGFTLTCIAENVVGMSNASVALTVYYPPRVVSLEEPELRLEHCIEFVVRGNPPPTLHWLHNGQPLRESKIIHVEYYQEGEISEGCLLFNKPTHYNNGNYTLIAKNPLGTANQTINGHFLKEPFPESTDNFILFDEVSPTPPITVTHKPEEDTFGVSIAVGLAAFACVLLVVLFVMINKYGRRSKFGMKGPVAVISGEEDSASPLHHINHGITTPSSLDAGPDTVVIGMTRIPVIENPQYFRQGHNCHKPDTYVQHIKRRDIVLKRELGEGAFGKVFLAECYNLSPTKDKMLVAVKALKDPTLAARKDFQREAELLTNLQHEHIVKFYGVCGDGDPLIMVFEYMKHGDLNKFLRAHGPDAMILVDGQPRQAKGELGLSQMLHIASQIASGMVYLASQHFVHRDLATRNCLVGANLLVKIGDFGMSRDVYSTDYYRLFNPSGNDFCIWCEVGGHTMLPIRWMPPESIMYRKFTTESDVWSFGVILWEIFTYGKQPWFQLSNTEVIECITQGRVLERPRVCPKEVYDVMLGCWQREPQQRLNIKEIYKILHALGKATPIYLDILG

Row | Structure (SMILES) | IC50 (TRKC) [nM] | IC50 (TRKA) [nM] | IC50 (TRKB) [nM] | IC50 (BaF3-ETV6-NTRK2) [nM] | IC50 (BaF3-CD74-NTRK1) [nM] | IC50 (BaF3-ETV6-NTRK3) [nM]
1 | Cc1c(C#Cc2cnc3ccc(N4CCN(C5COC5)CC4)nn23)cccc1C(=O)Nc1cc(Cl)cc(C(F)(F)F)c1 [XS3-138, N-(3-CHLORO-5-(TRIFLUOROMETHYL)PHENYL)-2-METHYL-3-((6-(4-(OXETAN-3-YL)PIPERAZINE)-1-YL)IMIDAZO[1,2-B]PYRIDAZIN-3-YL)ETHYNYL)BENZAMIDE] | < 10 | 10 to 100 | < 10 | 10 to 100 | 10 to 100 | < 10
2 | Cc1c(C#Cc2cnc3ccc(N4CCC(N(C)C)CC4)nn23)cccc1C(=O)Nc1cc(CN2CCN(C)CC2)cc(C(F)(F)F)c1 [XS3-67, 3-((6-(4-(DIMETHYLAMINO)PIPERIDIN-1-YL)IMIDAZO[1,2-B]PYRIDAZIN-3-YL)ETHYNYL)-2-METHYL-N-(3-((4-METHYLPIPERAZIN-1-YL)METHYL)-5-(TRIFLUOROMETHYL)PHENYL)BENZAMIDE] | < 10 | < 10 | 10 to 100 | 100 to 1000 | 100 to 1000 | 10 to 100
3 | Cc1c(C#Cc2cnc3ccc(N4CCOCC4)nn23)cccc1C(=O)Nc1cc(C(F)(F)F)cc(C(F)(F)F)c1 [XS4-76] | 10 to 100 | 10 to 100 | 10 to 100 | 10 to 100 | 10 to 100 | 10 to 100
4 | Cc1c(C#Cc2cnc3ccc(N4CCC(C)(O)CC4)nn23)cccc1C(=O)Nc1cc(Cl)cc(C(F)(F)F)c1 [XS3-153, N-(3-CHLORO-5-(TRIFLUOROMETHYL)PHENYL)-3-(6-(4-HYDROXY-4-METHYLPIPERIDIN-1-YL)IMIDAZO[1,2-B]PYRIDAZIN-3-YL)ETHYNYL)-2-METHYLBENZAMIDE] | 10 to 100 | 10 to 100 | 10 to 100 | 10 to 100 | 10 to 100 | 10 to 100
5 | Cc1c(C#Cc2cnc3cccnn23)cccc1C(=O)Nc1cccc(C(F)(F)F)c1 [XS2-106] | – | 100 to 1000 | > 1000 | 100 to 1000 | 100 to 1000 | –
6 | Cc1c(C#Cc2cnc3ccc(N4CCOCC4)nn23)cccc1C(=O)Nc1cccc(C(F)(F)F)c1 [XS3-23, 2-METHYL-3-((6-MORPHOLINIMIDAZO[1,2-B]PYRIDAZIN-3-YL)ETHYNYL)-N-(3-(TRIFLUOROMETHYL)BENZENE BASE) BENZAMIDE] | 10 to 100 | 10 to 100 | 10 to 100 | 10 to 100 | 10 to 100 | 10 to 100
7 | Cc1c(C#Cc2cnc3cccnn23)cccc1C(=O)Nc1cc(Cl)cc(C(F)(F)F)c1 [XS2-112, N-(3-CHLORO-5-(TRIFLUOROMETHYL)PHENYL)-3-(IMIDAZO[1,2-B]PYRIDAZIN-3-YLETHYNYL)-2-METHYLBENZENE FORMAMIDE] | 100 to 1000 | 100 to 1000 | 100 to 1000 | 100 to 1000 | 100 to 1000 | 100 to 1000
8 | Cc1c(C#Cc2cnc3ccc(N4CCC(N5CCOCC5)CC4)nn23)cccc1C(=O)Nc1cc(Cl)cc(C(F)(F)F)c1 [XS3-130, N-(3-CHLORO-5-(TRIFLUOROMETHYL)PHENYL)-2-METHYL-3-((6-(4-MORPHOLINPIPERIDIN-1-YL)IMIDAZO[1,2-B]PYRIDAZIN-3-YL)ETHYNYL)BENZAMIDE] | < 10 | 10 to 100 | 10 to 100 | 10 to 100 | 10 to 100 | 10 to 100
9 | Cc1c(C#Cc2cnc3ccc(N4CCOCC4)nn23)cccc1C(=O)Nc1cc(Cl)cc(C(F)(F)F)c1 [XS3-61, N-(3-CHLORO-5-(TRIFLUOROMETHYL)PHENYL)-2-METHYL-3-((6-MORPHOLINIMIDAZO[1,2-B]PYRIDAZINE-3-YL)ETHYNYL)BENZAMIDE] | 10 to 100 | 10 to 100 | 10 to 100 | – | 10 to 100 | 10 to 100
10 | Cc1c(C#Cc2cnc3ccc(N4CCN(C)CC4)nn23)cccc1C(=O)Nc1cc(Cl)cc(C(F)(F)F)c1 [XS3-51, N-(3-CHLORO-5-(TRIFLUOROMETHYL)PHENYL)-2-METHYL-3-((6-(4-METHYLPIPERAZIN-1-YL)IMIDAZO[1,2-B]PYRIDAZIN-3-YL)ETHYNYL)BENZAMIDE] | < 10 | 10 to 100 | 10 to 100 | 100 to 1000 | 100 to 1000 | 10 to 100
11 | Cc1cc(NC(=O)c2cccc(C#Cc3cnc4ccc(N5CCOCC5)nn34)c2C)cc(C(F)(F)F)c1 [XS4-81] | 10 to 100 | 10 to 100 | – | 10 to 100 | 10 to 100 | < 10

Second part, led by results:

Row | IC50 (TRKC) [nM] | IC50 (TRKA) [nM] | IC50 (TRKB) [nM] | Structure (SMILES) | IC50 (BaF3-ETV6-NTRK2) [nM] | IC50 (BaF3-CD74-NTRK1) [nM] | IC50 (BaF3-ETV6-NTRK3) [nM]
12 | < 10 | 10 to 100 | 10 to 100 | Cc1c(C#Cc2cnc3ccc(N4CC[C@H](O)C4)nn23)cccc1C(=O)Nc1cc(CN2CCN(C)CC2)cc(C(F)(F)F)c1 [XS3-36, (S)-3-((6-(3-HYDROXYPYRROLIDIN-1-YL)IMIDAZO[1,2-B]PYRIDAZIN-3-YL)ETHYNYL)-2-METHYL-N-(3-((4-METHYLPIPERAZIN-1-YL)METHYL)-5-(TRIFLUOROMETHYL)PHENYL)BENZAMIDE] | 10 to 100 | 10 to 100 | 10 to 100
13 | < 10 | < 10 | < 10 | Cc1cn(-c2cc(NC(=O)c3cccc(C#Cc4cnc5ccc(N6CCOCC6)nn45)c3C)cc(C(F)(F)F)c2)cn1 [XS3-91] | 10 to 100 | 10 to 100 | < 10
14 | 10 to 100 | 10 to 100 | 10 to 100 | COc1cc(NC(=O)c2cccc(C#Cc3cnc4ccc(N5CCOCC5)nn34)c2C)cc(C(F)(F)F)c1 [XS4-72] | 10 to 100 | 10 to 100 | < 10
15 | 10 to 100 | 10 to 100 | 10 to 100 | Cc1c(C#Cc2cnc3ccc(N(C)CCN(C)C)nn23)cccc1C(=O)Nc1cc(Cl)cc(C(F)(F)F)c1 [XS3-134, N-(3-CHLORO-5-(TRIFLUOROMETHYL)PHENYL)-3-((6-((2-(DIMETHYLAMINO)ETHYL)(METHYL)AMINO)IMIDAZO[1,2-B]PYRIDAZIN-3-YL)ETHYNYL)-2-METHYLBENZAMIDE] | 100 to 1000 | 100 to 1000 | 10 to 100
16 | 10 to 100 | 10 to 100 | 10 to 100 | Cc1c(C#Cc2cnc3ccc(N4CCN(C)[C@H](C)C4)nn23)cccc1C(=O)Nc1cc(Cl)cc(C(F)(F)F)c1 [XS3-52, (R)—N-(3-CHLORO-5-(TRIFLUOROMETHYL)PHENYL)-3-((6-(3,4-DIMETHYLPIPERAZIN-1-YL)IMIDAZO[1,2-B]PYRIDAZIN-3-YL)ETHYNYL)-2-METHYLBENZAMIDE] | 100 to 1000 | 10 to 100 | 10 to 100
17 | 10 to 100 | 10 to 100 | 10 to 100 | Cc1c(C#Cc2cnc3ccc(N4CCC(N(C)C)CC4)nn23)cccc1C(=O)Nc1cc(Cl)cc(C(F)(F)F)c1 [XS3-56, N-(3-CHLORO-5-(TRIFLUOROMETHYL)PHENYL)-3-((6-(4-(DIMETHYLAMINO)PIPERIDIN-1-YL)IMIDAZO[1,2-B]PYRIDAZIN-3-YL)ETHYNYL)-2-METHYLBENZAMIDE] | 100 to 1000 | 100 to 1000 | 10 to 100
18 | 10 to 100 | 10 to 100 | 10 to 100 | COCCNc1ccc2ncc(C#Cc3cccc(C(=O)Nc4cc(Cl)cc(C(F)(F)F)c4)c3C)n2n1 [XS3-135, N-(3-CHLORO-5-(TRIFLUOROMETHYL)PHENYL)-3-((6-((2-METHOXYETHYL)AMINO)IMIDAZO[1,2-B] PYRIDAZIN-3-YL)ETHYNYL)-2-METHYLBENZAMIDE] | 100 to 1000 | 100 to 1000 | 10 to 100
19 | 100 to 1000 | 100 to 1000 | > 1000 | Cc1c(C#Cc2cnc3cccnn23)cccc1C(=O)Nc1cc(F)cc(C(F)(F)F)c1 [XS2-109, N-(3-FLUORO-5-(TRIFLUOROMETHYL)PHENYL)-3-(IMIDAZO[1,2-B]PYRIDAZIN-3-YLETHYNYL)-2-METHYLBENZENE FORMAMIDE] | – | – | –
20 | 10 to 100 | 10 to 100 | 10 to 100 | Cc1c(C#Cc2cnc3cccnn23)cccc1C(=O)Nc1cc(CN2CCN(C)CC2)cc(C(F)(F)F)c1 [XS116] | 100 to 1000 | 100 to 1000 | 100 to 1000
21 | 10 to 100 | 10 to 100 | 10 to 100 | Cc1c(C#Cc2cnc3ccc(N4CCOCC4)nn23)cccc1C(=O)Nc1cc([N+](=O)[O-])cc(C(F)(F)F)c1 [XS4-77] | 10 to 100 | 10 to 100 | < 10
22 | 10 to 100 | 10 to 100 | – | Cc1c(C#Cc2cnc3ccc(N4CCOCC4)nn23)cccc1C(=O)Nc1cc(F)cc(C(F)(F)F)c1 [XS4-80] | 10 to 100 | 10 to 100 | 10 to 100
